Where two headings read alike, the source gives them in different places.
Columns and labels:
[1] = system: Dd2b2^31-R1.2; experiment: [3H]-hypoxanthine incorporation assay; type: cell-based, Plasmodium falciparum
Procedure: (§1) P. falciparum asexual blood stage parasites were cultured in human red blood cells (RBC, Blutspende SRK, Zurich) at a hematocrit of 5% in RPMI 1640 medium. The RPMI 1640 medium (ThermoFisher Scientific #51800−043) was supplemented with the following: 24 mM NaHCO3 (pH 7.3, Sigma-Aldrich #31437−500G-R), 25 mM Hepes (Sigma-Aldrich #H4034−500G), 0.36 mM hypoxanthine (Sigma-Aldrich # H9377−25G), 100 µg mL^-1 neomycin (Sigma-Aldrich #N6386−100G) and 0.5% Albumax II (Thermo Fisher #11021−045). Additionally, 2 mM choline chloride (279 mg/L, Sigma-Aldrich #C7527−100G) was added to the culture to block the induction of sexual commitment as described. ^[31^] The RPMI 1640 medium and components were dissolved in water (Milli-Q purified), stirred for at least 3 h, and then sterile filtered (0.22 μm pore size) with a bottle top filter (Corning # 431118). Parasite cultures were maintained in an atmosphere of 3% O2, 4% CO2, and 93% N2 in air-tight chambers at 37 °C. The [^3H]-hypoxanthine incorporation assay was used to test compound activity in the specific parasite lines as described.^[32^] Briefly, compounds were dissolved in DMSO (10 mM) and diluted in a hypoxanthine-free culture medium. A limiting dilution was performed over a 64-fold range (6-step twofold dilution) in a 96-well plate in duplicates. For every starting concentration, a limiting dilution was performed over a 64-fold range (6-step twofold dilution) in a 96-well plate in two biological duplicates. Parasites were added at 100 µL to each well containing the compound to obtain a final parasitemia of 0.3% and haematocrit of 1.25%. The plates were incubated for 48 h before 0.25 µCi of [^3H]-hypoxanthine was added per well for an additional 24 h. Parasites were harvested on a glass-fiber filter with a Microbeta FilterMate cell harvester (Perkin Elmer, Waltham, USA) and radioactivity was counted using a MicroBeta2 liquid scintillation counter (Perkin Elmer, Waltham, US). […] The fifty percent inhibitory concentration (IC50) was calculated by using nonlinear, four parameter (variable slope) curve fitting as described ^[33^] after importing into GraphPad Prism (version 8.3.0).
(§2) 31 was used for resistance selection studies using the strain Dd2b2 (kindly provided by David Fidock). Resistance selection was done as described in ^[34^]. As summarized in Table S3, an initial inoculum of 2 x 10^9 asexual blood stage parasites (at 2-2.5% parasitemia) were cultured in three independent flasks. […] Cloning via limiting dilution was performed to obtain resistant clones for further characterization as described in section 2.2.5.

[2] = system: Dd2b2^31-R1.1; experiment: [3H]-hypoxanthine incorporation assay; type: cell-based, Plasmodium falciparum
Procedure: as §1, §2

[3] = system: Dd2b2^31-R2.1; experiment: [3H]-hypoxanthine incorporation assay; type: cell-based, Plasmodium falciparum
Procedure: as §1, §2

[4] = system: Dd2b2^31-R3.1; experiment: [3H]-hypoxanthine incorporation assay; type: cell-based, Plasmodium falciparum
Procedure: as §1, §2

[5] = system: Dd2b2^WT; experiment: [3H]-hypoxanthine incorporation assay; type: cell-based, Plasmodium falciparum; conditions: for IC50: Plasmodium falciparum
Procedure: as §1, §2

[6] = system: Dd2b2^31-R2.2; experiment: [3H]-hypoxanthine incorporation assay; type: cell-based, Plasmodium falciparum
Procedure: as §1, §2

[7] = system: Dd2b2^31-R3.2; experiment: [3H]-hypoxanthine incorporation assay; type: cell-based, Plasmodium falciparum
Procedure: as §1, §2

[8] = system: HepG2; experiment: Cytotoxicity assay (MTT); type: cell-based, human
Procedure: (§3) HepG2 (2x10^4 cells per well) were seeded in 96-well flat-bottom culture plates in 100 µL of culture medium (DMEM containing 10% fetal calve serum and 1% penicillin-streptomycin). After 24 hours, the medium was replaced by fresh medium containing test compounds in a final DMSO concentration of 1%. […] Epirubicin and doxorubicin were used as positive controls in serial dilutions starting from 10 µM, and rifampicin was used as a negative control (at 100 µM). Cell viability was determined 48 h after treatment with compounds by adding 0.1 volumes of 3-(4,5-dimethylthiazol-2-yl)-2,5-diphenyltetrazolium bromide (MTT) solution (5 mg/mL sterile PBS) (Sigma, St. Louis, MO) to the wells. After incubating the cells for 30 min at 37 °C (atmosphere containing 5% CO2), medium was removed and MTT crystals were dissolved in 75 µL of a solution containing 10% SDS and 0.5% acetic acid in DMSO. The optical density (OD) of the samples was measured photometrically at 570 nm in a PHERAstar Omega plate reader (BMG labtech, Ortenberg, Germany). Percent viability was calculated by normalizing sample ODs to those of the DMSO controls. Each compound was tested in at least two independent experiments and CC50 values were determined using the nonlinear regression function of GraphPad Prism 10 (GraphPad Software, San Diego, CA, USA).

[9] = Cytotoxicity assay (MTT); type: cell-based, human; conditions: human, HepG2 cells; HepG2, 48 h, MTT; mean ± s.d.
Procedure: as §3

[10] = Plasmodium falciparum, read-out: mean IC50 value ± s.d.

Compound: CN1CCN(Cc2ccc(O)c(NC(=O)c3cccc(Oc4cc(C(F)(F)F)ccn4)c3)c2)CC1 [Compound 31, N-(2-hydroxy-5-((4-methylpiperazin-1-yl)methyl)phenyl)-3-((4-(trifluoromethyl)pyridin-2-yl)oxy)benzamide]
- IC50 fold change relative to Dd2b2^WT ([1]; Dd2b2^31-R1.2): 11.9
- IC50 [1, 10]: 0.159 ± 0.0329 µM
- IC50 fold change relative to Dd2b2^WT ([2]; Dd2b2^31-R1.1): 2.7
- IC50 [2, 10]: 0.0358 ± 0.0112 µM
- IC50 fold change relative to Dd2b2^WT ([3]; Dd2b2^31-R2.1): 16.9
- IC50 [3, 10]: 0.225 ± 0.0353 µM
- IC50 fold change relative to Dd2b2^WT ([4]; Dd2b2^31-R3.1): 14.5
- IC50 [4, 10]: 0.193 ± 0.0353 µM
- IC50 fold change relative to Dd2b2^WT ([5]; Dd2b2^WT): 1.0
- IC50 ([5]; 72 h, read-out: Parent (Dd2b2^WT) IC50): 0.0045 ± 0.0007 µM
- IC50 ([5]; read-out: mean IC50 value ± s.d.): 0.0133 ± 0.0017 µM
- IC50 fold change relative to Dd2b2^WT ([6]; Dd2b2^31-R2.2): 11.6
- IC50 [6, 10]: 0.154 ± 0.0263 µM
- IC50 fold change relative to Dd2b2^WT ([7]; Dd2b2^31-R3.2): 19.8
- IC50 [7, 10]: 0.264 ± 0.0405 µM
- selectivity index (CC50/IC50) ([8]; HepG2 CC50 / P. falciparum IC50): 9,487
- inhibition at 100 µM ([8]; Homo sapiens, HepG2, 100 µM, 48 h, MTT): 87 ± 5%
- CC50 at 48 h [9]: 37 µM

Reference: publication PMC12668308, “A Novel Antimalarial Agent that Inhibits Protein Synthesis in Plasmodium falciparum” (Angewandte Chemie (International Ed. in English), 2025)
